Source: patent US9126999B2, “Tetrahydropyrazolopyrimidine compounds” (EISAI R&D MANAGEMENT CO., LTD., priority 2012, dated 2015)
“And” between values parts separate entries of the source, which are not always exact repeats. Equal entries are not always repeated. Where two headings read alike, the source gives them in different places.

Experiments:
Mouse TLR7 [1] = target: T1, Mouse TLR7 (Mus musculus, UniProt P58681); experiment: Mouse spleen cell-based assay, R848 stimulus, IL-6 ELISA
T1 construct: endogenous in cells; host or cells: female BALB/c mice, in vivo
T1 sequence (P58681 27-1050): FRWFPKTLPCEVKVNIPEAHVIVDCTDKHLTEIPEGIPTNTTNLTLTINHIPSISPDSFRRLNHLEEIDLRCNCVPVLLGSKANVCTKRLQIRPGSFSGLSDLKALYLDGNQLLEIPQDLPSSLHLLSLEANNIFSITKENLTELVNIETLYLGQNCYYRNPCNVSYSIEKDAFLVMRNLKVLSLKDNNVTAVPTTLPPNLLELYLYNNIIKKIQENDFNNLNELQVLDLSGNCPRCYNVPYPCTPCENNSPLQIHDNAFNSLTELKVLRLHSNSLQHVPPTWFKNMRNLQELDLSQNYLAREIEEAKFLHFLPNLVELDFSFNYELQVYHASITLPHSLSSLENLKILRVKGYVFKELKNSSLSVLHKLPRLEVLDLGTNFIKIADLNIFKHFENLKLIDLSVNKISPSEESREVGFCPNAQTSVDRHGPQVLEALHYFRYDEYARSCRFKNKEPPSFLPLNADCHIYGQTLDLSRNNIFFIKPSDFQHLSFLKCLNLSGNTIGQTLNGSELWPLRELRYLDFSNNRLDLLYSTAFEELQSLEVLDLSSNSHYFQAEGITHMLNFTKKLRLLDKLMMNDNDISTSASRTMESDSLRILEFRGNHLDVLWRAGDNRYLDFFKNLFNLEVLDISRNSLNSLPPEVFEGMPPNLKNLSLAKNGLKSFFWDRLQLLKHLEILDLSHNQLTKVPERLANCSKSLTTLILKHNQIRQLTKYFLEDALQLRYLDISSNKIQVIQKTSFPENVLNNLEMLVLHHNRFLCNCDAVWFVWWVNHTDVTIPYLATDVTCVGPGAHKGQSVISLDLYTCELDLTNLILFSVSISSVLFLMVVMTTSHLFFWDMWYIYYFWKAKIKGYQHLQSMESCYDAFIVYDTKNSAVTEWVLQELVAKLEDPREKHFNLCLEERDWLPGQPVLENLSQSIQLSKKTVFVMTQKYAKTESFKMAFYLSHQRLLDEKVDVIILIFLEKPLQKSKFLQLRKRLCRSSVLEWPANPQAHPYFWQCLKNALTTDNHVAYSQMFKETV
Experimental: Spleens were harvested from female BALB/c mice (Jackson Labs, Bar Harbor, Me.) euthanized by CO2. A single cell suspension was obtained by passing spleens through a 40 μm nylon cell strainer. Cells were washed twice with 50 ml PBS (Mediatech, Inc., Manassas, Va.) and red blood cells were lysed in 5 ml RBC Lysis buffer (eBioscience, Inc., San Diego, Calif.) for 5 minutes at room temperature. Cells were washed twice more in PBS and finally resuspended in supplemented RPMI-1640 at 2.5×10^6 cells/ml. Cells were plated at 100 μl/well (2.5×10^5 cells/well) in 96-well tissue culture treated plates (Falcon). Serial dilutions of compounds solubilized in 100% DMSO were added in triplicate to cells to yield a final concentration of 0.1% DMSO. Cells were incubated with compound for 30 minutes at 37° C., 5% CO2 before adding 100 μl/well of 740 nM R848 (Resiquimod; GLSynthesis, Worcester, Mass.) in complete media for a final concentration of 370 nM R848. Cells were incubated for 20 hours at 37° C., 5% CO2. Culture supernatants were collected, and levels of IL-6 were assessed by standard ELISA procedure according to the manufacturer's recommended protocol (BD Biosciences, Inc., San Diego, Calif.).

Mouse TLR7 [2] = target: T1, Mouse TLR7; experiment: Short-term in vivo (STIV) assay: plasma IL-6 after s.c. R848
Experimental: Figure Legend: Female BALB/c mice were dosed by oral gavage with Vehicle alone (0.5% aqueous methyl-cellulose) or compound ER-892887 formulated in Vehicle at 100 mg/kg or 300 mg/kg. At 13 or 24 hours following oral dosing, mice were injected subcutaneously with 15 ug R848 to stimulate TLR7. Blood plasma was collected by cardiac puncture, and the IL-6 level at 1.5 hours after TLR7 stimulation was then assessed by standard ELISA procedure. Percent suppression indicated is relative to IL-6 induction following Vehicle control dosing. Statistical significance was determined by Mann-Whitney test.
To assess compound potency in vivo against mouse TLR7, a short-term in vivo (STIV) assay was utilized. Briefly, mice were orally dosed with compounds and at various time points afterwards were injected subcutaneously with agonist R848 to stimulate TLR7. The plasma IL-6 level following R848 stimulation was then measured by ELISA to assess compound potency and duration-of-action. […] Therefore, the activity of compounds in the STIV assay can be confidently attributed to their modulation of the TLR7 pathway. A single oral dose of ER-892887 at 300 mg/kg suppresses the R848/TLR7/IL-6 pathway in vivo by 80-90% for at least 24 hours (see FIG. 1).
Six to eight week old female BALB/c mice (Jackson Labs, Bar Harbor, Me.) were dosed by oral gavage in 200 ul volume with antagonist compounds formulated in 0.5% aqueous methyl-cellulose (Sigma, St. Louis, Mo.). At various time points afterwards, mice were injected subcutaneously (s.c.) in 100 ul volume with 15 ug R848 (Resiquimod; GLSynthesis, Worcester, Mass.) to stimulate TLR7. Blood plasma was collected by cardiac puncture, and levels of IL-6 at 1.5 hours after TLR7 stimulation were then assessed by standard ELISA procedure according to the manufacturer's recommended protocol (R&D Systems).

[3] = system: mouse lupus disease models; experiment: SLE disease models, summary of findings; assay type: in vivo; details: summary over lupus models
Experimental: Male BXSB-Yaa and female NZBWF1/J mice were purchased from Jackson Labs (Bar Harbor, Me.), both of which manifest with spontaneous lupus disease. Female DBA/1 mice were purchased from Harlan Laboratories (Indianapolis, Ind.) and at the indicated ages given an intraperitoneal injection of 0.5 ml pristane (2,6,10,14-Tetramethylpentadecane; Sigma, St. Louis, Mo.) to chemically induce lupus disease or of 0.5 ml PBS to generate age-matched, non-diseased control mice. Mice were dosed daily by oral administration of compound or drug in 0.5% methylcellulose, for the time period indicated.

[4] = Mouse Splenocyte IL-6 Inhibition (R848 Ligand), read-out: Mouse Splenocyte IC50
[5] = time point 6 hr, dose 33 mg/kg oral
[6] = time point 6 hr, dose 100 mg/kg oral
[7] = time point 13 hr, dose 33 mg/kg oral
[8] = time point 13 hr, dose 100 mg/kg oral

IC50 (Mouse TLR7 [1]; [4]) | % Suppression vs. Vehicle (Mouse TLR7 [2]; time point 19 hr, dose 100 mg/kg oral) [%] | % Suppression vs. Vehicle (Mouse TLR7 [2]; time point 19 hr, dose 300 mg/kg oral) [%] | Compound | % Suppression vs. Vehicle (Mouse TLR7 [2]; [5]) [%] | % Suppression vs. Vehicle (Mouse TLR7 [2]; [6]) [%] | % Suppression vs. Vehicle (Mouse TLR7 [2]; [7]) [%] | % Suppression vs. Vehicle (Mouse TLR7 [2]; [8]) [%] | kidney disease as manifested by proteinuria and histologic changes [3] | production of several autoantibody specificities [3] | IC50 (Mouse TLR7 [1]; Mu Spleen, ligand R848, analyte IL-6, read-out: IC50) [nM] | suppression of the R848/TLR7/IL-6 pathway in vivo (Mouse TLR7 [2]; single oral dose 300 mg/kg) | duration of suppression of the R848/TLR7/IL-6 pathway in vivo (Mouse TLR7 [2]; single oral dose 300 mg/kg, 80-90% suppression) | % Suppression vs. Vehicle (Mouse TLR7 [2]; time point 13 hr, dose 11 mg/kg oral) [%] | % Suppression vs. Vehicle (Mouse TLR7 [2]; time point 13 hr, dose 300 mg/kg oral) [%] | % Suppression vs. Vehicle (Mouse TLR7 [2]; time point 24 hr, dose 33 mg/kg oral) [%] | % Suppression vs. Vehicle (Mouse TLR7 [2]; time point 24 hr, dose 100 mg/kg oral) [%] | % Suppression vs. Vehicle (Mouse TLR7 [2]; time point 24 hr, dose 300 mg/kg oral) [%]
3110 nM | – | – | Cc1nn(C)cc1[C@@H]1C[C@H](C(F)(F)F)n2nc(-c3ccc(NC(N)=O)cc3)cc2N1 [ER-894595] | 0 | 57 | 0 | 0 | – | – | – | – | – | – | – | – | – | –
680 nM | 56 | 100 | COc1ccc([C@@H]2C[C@H](C(F)(F)F)n3nc(-c4ccncc4)cc3N2)cc1OC [ER-885454] | – | – | – | – | suppressed | limited | – | – | – | – | – | – | – | –
3020 nM | – | – | Cc1nn(C)cc1[C@H]1C[C@@H](C(F)(F)F)n2nc(-c3ccc(NC(N)=O)cc3)cc2N1 [ER-894596] | – | – | – | – | – | – | – | – | – | – | – | – | – | –

Compound | IC50 (Mouse TLR7 [1]; [4]) | % Suppression vs. Vehicle (Mouse TLR7 [2]; time point 19 hr, dose 100 mg/kg oral) [%] | % Suppression vs. Vehicle (Mouse TLR7 [2]; time point 19 hr, dose 300 mg/kg oral) [%] | % Suppression vs. Vehicle (Mouse TLR7 [2]; [5]) [%] | % Suppression vs. Vehicle (Mouse TLR7 [2]; [6]) [%] | % Suppression vs. Vehicle (Mouse TLR7 [2]; [7]) [%] | % Suppression vs. Vehicle (Mouse TLR7 [2]; [8]) [%] | kidney disease as manifested by proteinuria and histologic changes [3] | production of several autoantibody specificities [3] | IC50 (Mouse TLR7 [1]; Mu Spleen, ligand R848, analyte IL-6, read-out: IC50) [nM] | suppression of the R848/TLR7/IL-6 pathway in vivo (Mouse TLR7 [2]; single oral dose 300 mg/kg) | duration of suppression of the R848/TLR7/IL-6 pathway in vivo (Mouse TLR7 [2]; single oral dose 300 mg/kg, 80-90% suppression) | % Suppression vs. Vehicle (Mouse TLR7 [2]; time point 13 hr, dose 11 mg/kg oral) [%] | % Suppression vs. Vehicle (Mouse TLR7 [2]; time point 13 hr, dose 300 mg/kg oral) [%] | % Suppression vs. Vehicle (Mouse TLR7 [2]; time point 24 hr, dose 33 mg/kg oral) [%] | % Suppression vs. Vehicle (Mouse TLR7 [2]; time point 24 hr, dose 100 mg/kg oral) [%] | % Suppression vs. Vehicle (Mouse TLR7 [2]; time point 24 hr, dose 300 mg/kg oral) [%]
COc1ccc([C@@H]2C[C@H](C(F)(F)F)n3nc(-c4ccc(C(=O)N5CCNCC5)cc4)cc3N2)cc1OC [ER-892887, (4-((5S,7R)-5-(3,4-dimethoxyphenyl)-7-(trifluoromethyl)-4,5,6,7-tetrahydropyrazolo[1,5-a]pyrimidin-2-yl)phenyl)(piperazin-1-yl)methanone] | 70 nM and 330 nM | – | – | 83 | 100 | 12 | 49 | suppressed | limited | 70 | 80-90% | at least 24 hours | 27 | 90 | 0 | 12 | 86
